The source of these data is patent US20260337162A1, “TRYPTAMINE COMPOUNDS, COMPOSITIONS, AND METHODS OF USE” (priority 2022, published 2026).

“Also recorded” adds a separate entry of the source. Read-outs that look alike come from different tables or passages of the source.

The conditions of series [1]: cited from earlier work.
In series [2] the target is T1, 5-HT2A receptor (Homo sapiens, UniProt P28223).
T1 construct: expressed in transfected cells
The series is described as follows: 5-HT2A receptor functional screening assay (efficacy relative to maximal 5-HT response). The note with it: for activation at 0.5 µM: 500 nM. In kind it is cell-based. Here is the method: (§1) 5-HT2 receptor-mediated Gq stimulation [phosphoinositide hydrolysis leading to the production of inositol phosphate 1 (IP1)]-canonical signaling pathways-were measured as previously described (Canal, C. E., Cordova-Sintjago, T., Liu, Y., Kim, M. S., Morgan, D., and Booth, R. G., 2013, Molecular pharmacology and ligand docking studies reveal a single amino acid difference between mouse and human serotonin 5-HT2A receptors that impacts behavioral translation of novel 4-phenyl-2-dimethylaminotetralin ligands, J Pharmacol Exp Ther 347, 705-716; Canal, C. E., Morgan, D., Felsing, D., Kondabolu, K., Rowland, N. E., Robertson, K. L., Sakhuja, R., and Booth, R. G., 2014, A Novel Aminotetralin-Type Serotonin (5-HT)(2C) Receptor —Specific Agonist and 5-HT2A Competitive Antagonist/5-HT2B Inverse Agonist with Preclinical Efficacy for Psychoses, J Pharm Exp Ther 349, 533), for example, with a homogeneous time-resolved fluorescence (HTRF) capable microplate reader (e.g., Mithras LB 940, Berthold) using commercially-available kits employing Fluorescence Resonance Energy Transfer (FRET) technology (e.g., IP-One HTRF (Cisbio) kits). Briefly, CHO-K1 or HEK293 cells expressing a single serotonergic 5-HT2 receptor subtype were incubated with test compounds and 5-HT or DOI (positive control) in stimulation buffer containing LiCl. After equilibration, the reaction was terminated with the donor and acceptor fluorescent conjugates in lysis buffer, and FRET was measured with a microplate reader (Berthold Mithras). Data were fit to non-linear curves to calculate potencies (e.g., EC50) and efficacies (e.g., EMAX), relative to positive controls (e.g., serotonin).

Series [3] deals with T1, 5-HT2A receptor. Put plainly: Dose-response 5-HT2A functional assay (IP1 formation). The format is cell-based. Here is the method:
FIG. 27 is a graph showing the dose-response 5-HT2A functional assay results as a percent of control agonist response for compound II-2; tested in duplicate at the indicated concentrations and the EC50 values were determined by non-linear regression analysis of the concentration-response curves generated with mean replicate values using Hill equation curve fitting;
FIG. 28 is a graph showing the dose-response 5-HT2A functional assay results as a percent of control agonist response for compounds III-2 and IV-21; tested in duplicate at the indicated concentrations and the EC50 values were determined by non-linear regression analysis of the concentration-response curves generated with mean replicate values using Hill equation curve fitting; and
as §1
The results from tests of 5-HT2A functional activities of this series of compounds were also unexpected in the context of the unusual results observed from competition binding assays. […] Complete dose-response 5-HT2A and 5HT2B functional assays (measuring IP1 formation) were conducted for III-2 and IV-21 by a second, independent laboratory.

The target in series [4] is T2, human serotonin 5-HT2A receptor (Homo sapiens, UniProt P28223).
T2 construct: host or cells: HEK293 (ATCC CRL-1573)
The series is described as follows: Radioligand ([3H]LSD) competition binding, 5-HT2A receptor. The note with it: for 5-HT2A receptor affinity (in words) / competition binding curve shape / Ki: [3H]LSD; for competition binding curve shape / competition for [3H]LSD-labeled 5-HT2A receptors: in words; for Ki: one-site fit Ki model; for competition for [3H]LSD-labeled 5-HT2A receptors: up to 10 μM for partial competition. Here is the method: Binding affinity (Ki) and functional potency and efficacy (EC50 and EMAX) values of the compounds were measured.
Radioligand competition binding was performed as previously described (Saraf, T. S., Felsing, D. E., Armstrong, J. L., Booth, R. G., and Canal, C. E., 2021, Evaluation of lorcaserin as an anticonvulsant in juvenile Fmr1 knockout mice, Epilepsy Res 175, 106677), with minor modifications, using human cloned 5-HT2A receptors. Plasmids encoding human serotonin 5-HT2A receptor cDNA were procured from the cDNA Resource Center. Human embryonic kidney cells (HEK293, ATCC CRL-1573) were grown in a cell incubator in 100 mm dishes with antibiotic-free Dulbecco's modified Eagle's medium containing 10% fetal bovine serum. Cells were transfected at ~85% confluency with 5-15 μg cDNA using TransIT-2020 reagent (Mirus Bio, Madison, Wisconsin). After approximately 48 hours, cell membrane was collected via centrifugation. For all experiments, serotonin (5-HT) hydrochloride was used as a positive control, and mianserin hydrochloride (10 μM) was used to define non-specific binding. Each cell membrane homogenate expressing 5-HT2A receptors was incubated at room temperature in 96-well plates with [^3H] […] Following equilibration, each sample was filtered rapidly under vacuum through fiberglass filters presoaked in a buffer and washed by vacuum several times with an ice-cold buffer. Filters were soaked with scintillation fluid and counts per minute were detected using photodetectors (Microbeta Scintillation Counter). […] Data shown are the results from all experiments combined. As is known, G protein-coupled receptors, including the 5-HT2A receptor, can exist in multiple conformations, and ligands, typically agonist ligands, have unique affinities for these conformations of the receptor (Kenakin, T. Theoretical Aspects of GPCR-Ligand Complex Pharmacology, Chem. Rev. 2017, 117, 1, 4-20). […] However, for simplicity reasons, affinity of these compounds are reported herein as fitted to the single-site model. The data point for −10 samples is total specific binding (no compound present), and −4 was interpolated to complete the binding curves to 0 specific binding.

Series [5] concerns 5-HT2A receptor. The series is described as follows: Head-twitch response (HTR) and behavioral observation in mice. The conditions noted are these: 10 mg/kg PO; for HTR (per min): 30 min counting; for elicitation of HTR (in words) / qualitative behavioral changes: mice. The format is in vivo, adult, male C57BL/6J mice. Here is the method: The HTR assay was performed in adult, male C57BL/6J mice, procured from the Jackson Laboratory (Bar Harbor, Maine), as previously described (Canal, C. E., and Morgan, D., 2012, Head-twitch response in rodents induced by the hallucinogen 2,5-dimethoxy-4-iodoamphetamine: a comprehensive history, a re-evaluation of mechanisms, and its utility as a model, Drug Test Anal 4, 556-576; Saraf, T. S., Felsing, D. E., Armstrong, J. L., Booth, R. G., and Canal, C. E., 2021, Evaluation of lorcaserin as an anticonvulsant in juvenile Fmr1 knockout mice, Epilepsy Res 175, 106677). Mice were housed in standard laboratory cages with ad libitum access to food and water, and were acclimated to the vivarium for at least one week prior to testing in a procedure room. On the day of testing, mice were acclimated to the procedure room in their home cages for ≥60 min before administration of test compounds. Test articles were administered at 10 mg/kg by oral gavage and mice were placed immediately thereafter in a clear, polycarbonate box (46×20×20 cm), and HTRs were counted for 30 consecutive minutes, using hand-held tally counters, by two trained observers who were blind to treatment.

The next series in a line: in vivo. The format is in vivo, adult, male C57BL/6J mice. The note with it: 10 mg/kg PO; for concentration at 10 min / concentration at 0.5 h / concentration at 2 h: mouse, in vivo, po, 10 mg/kg; for concentration at 0.5 h: 30 min; for concentration at 2 h: 120 min. Here is the method:
PK profiles were established in adult, male C57BL/6J (Jackson Laboratories). Mice were housed in standard laboratory cages with ad libitum access to food and water, and were acclimated to the vivarium for at least one week prior to testing in a procedure room. In a typical experiment, mice were administered 10 mg/kg of test compound by oral gavage and plasma and brain samples were collected at 10, 30, and 120 min with n-3 for each time point. Quantification of the parent molecule was done using LC-MS/MS method (LLOQ, 0.9 nM).

The mark [6] stands for this setting: brain, read-out: PK data, Brain, 10 min.
The mark [7] stands for this setting: brain, read-out: PK data, Brain, 30 min.
[8] abbreviates: brain, read-out: PK data, Brain, 120 min.
Setting [9] is: plasma, read-out: PK data, Plasma, 10 min.
[10] abbreviates: plasma, read-out: PK data, Plasma, 30 min.
Where [11] appears, read: plasma, read-out: PK data, Plasma, 120 min.

T1 sequence (P28223 whole entry): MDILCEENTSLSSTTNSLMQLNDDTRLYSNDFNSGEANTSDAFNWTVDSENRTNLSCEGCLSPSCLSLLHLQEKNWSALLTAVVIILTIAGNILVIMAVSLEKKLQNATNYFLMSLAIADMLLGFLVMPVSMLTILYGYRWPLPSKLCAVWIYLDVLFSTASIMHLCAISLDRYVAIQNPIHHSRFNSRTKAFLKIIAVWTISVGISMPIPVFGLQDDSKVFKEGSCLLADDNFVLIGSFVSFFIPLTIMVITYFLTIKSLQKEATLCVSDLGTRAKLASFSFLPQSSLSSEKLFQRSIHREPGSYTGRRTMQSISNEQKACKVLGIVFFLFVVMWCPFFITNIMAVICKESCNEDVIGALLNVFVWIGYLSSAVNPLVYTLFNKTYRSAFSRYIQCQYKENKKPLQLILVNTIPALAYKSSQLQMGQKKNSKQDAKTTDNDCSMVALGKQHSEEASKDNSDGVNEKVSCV
T2 sequence (P28223 whole entry): as above

On to `COc1ccc2[nH]cc(CCN(C)C)c2c1` [Compound 5-MeO-DMT, 5-methoxy-N,N-dimethyltryptamine], for which, in series [1] (in vivo), the duration of action is 5 to 15 min. The “oral activity / oral bioavailability” value in series [1] (oral) is given as “lacks oral bioavailability”.

With `CN(C)CCc1c[nH]c2ccc(SC(F)(F)F)cc12` [Compound I-3, N,N-dimethyl-2-(5-((trifluoromethyl)thio)-1H-indol-3-yl) ethan-1-amine], at 5-HT2A receptor [2], the activation at 0.5 µM is -34.2% and the activation at 50 µM stood at 43.9%.

For `FC(F)CCN(CCc1c[nH]c2ccccc12)CCC(F)F` [II-2, N-(2-(1H-indol-3-yl)ethyl)-N-(3,3-difluoropropyl)-3,3-difluoropropan-1-amine], the activation at 0.5 µM on 5-HT2A receptor [2] is 1.4%. Moreover, the midpoint of the response at 5-HT2A receptor [3] (IP1 formation), the EC50, lay at 596 nM. This compound also showed an Emax at 5-HT2A receptor [3] (percent of control agonist response) of 79%.

As for `FC(F)(F)CCN(CCc1c[nH]c2ccccc12)CCC(F)(F)F` [II-3, N-(2-(1H-indol-3-yl)ethyl)-3,3,3-trifluoro-N-(3,3,3-trifluoropropyl) propan-1-amine], on 5-HT2A receptor [2], the activation at 0.5 µM is -29.7% and the activation at 50 µM was greater than 50%.

As for `CN(CCc1c[nH]c2ccccc12)CCC(F)(F)F` [II-6, N-(2-(1H-indol-3-yl)ethyl)-3,3,3-trifluoro-N-methylpropan-1-amine], in series [4], the “5-HT2A receptor affinity (in words)” value is on record as “high affinities”, the “competition binding curve shape” value was “multiple slopes”, the affinity corresponds to a Ki of 12 nM and the “competition for [3H]LSD-labeled 5-HT2A receptors” value was “complete competition”. Further, at 5-HT2A receptor [2], the activation at 0.5 µM is -7.7 ± 11.6% and the activation at 50 µM is -3.1 ± 9.6%. In the series on 5-HT2A receptor [5], the “HTR (per min)” value is given as less than 1 per min; the “elicitation of HTR (in words)” value is on record as “did not elicit a HTR”; the qualitative behavioral changes result was “reduced locomotion and “hiccup” responses”. Besides, in the series “in vivo” (mice), the “brain penetration (in words)” value is “brain-penetrant”. The concentration at 10 min in the series “in vivo” (setting [6]) was 1550 to 12600 nM. The concentration at 0.5 h in the series “in vivo” (setting [7]) was 720 to 4710 nM. For the same compound, the concentration at 2 h in “in vivo” (setting [8]) was in the range of 21 to 1130 nM. Besides, in the series “in vivo” (setting [9]), the concentration at 10 min fell in the range of 820 to 7760 nM. Also, the concentration at 0.5 h in “in vivo” (setting [10]) fell in the range of 390 to 3140 nM. Besides, the concentration at 2 h in “in vivo” (setting [11]) lay in the range of 7 to 440 nM.

`FC(F)(F)CN(CCc1c[nH]c2ccccc12)CC(F)(F)F` [II-10, N-(2-(1H-indol-3-yl)ethyl)-2,2,2-trifluoro-N-(2,2,2-trifluoroethyl) ethan-1-amine]: the “competition for [3H]LSD-labeled 5-HT2A receptors” value in series [4] is on record as “only partial competition”.

In the case of `CN(CCc1c[nH]c2ccccc12)CC(F)F` [II-12, N-(2-(1H-indol-3-yl)ethyl)-2,2-difluoro-N-methylethan-1-amine], on 5-HT2A receptor [2], the activation at 0.5 µM amounted to 19.9% and the activation at 50 µM was 30.3%.

As to `FC1(F)CCN(CCc2c[nH]c3ccccc23)CC1` [II-21, 3-(2-(4,4-difluoropiperidin-1-yl)ethyl)-1H-indole], on 5-HT2A receptor [2], the activation at 0.5 µM stood at 9.2% and the activation at 50 µM was -25.4%.

On to `Oc1cccc2[nH]cc(CCN(CCC(F)(F)F)CCC(F)(F)F)c12` [III-3, 3-(2-(bis(3,3,3-trifluoropropyl)amino)ethyl)-1H-indol-4-ol], for which, on 5-HT2A receptor [2], the activation at 0.5 µM was 29.2% and the activation at 50 µM was greater than 50%.

`CN(CCc1c[nH]c2cccc(O)c12)CCC(F)(F)F` [III-6, 3-(2-(methyl (3,3,3-trifluoropropyl)amino)ethyl)-1H-indol-4-ol]: in series [4], the “5-HT2A receptor affinity (in words)” value is recorded as “high affinities; also recorded: potent affinity”, the “competition binding curve shape” value was “multiple slopes”, the Ki came to 12 nM and the “competition for [3H]LSD-labeled 5-HT2A receptors” value is “complete competition”. Besides, on 5-HT2A receptor [2], the activation at 0.5 µM worked out at 53.5% and the activation at 50 µM was greater than 50%. For the same compound, the “5-HT2A functional activity (in words)” value at 5-HT2A receptor [2] (in vitro screening, II-15: both 500 nM and 50 μM) is given as “agonist activity; also recorded: behaved as an agonist”. Moreover, in the series with 5-HT2A receptor [5], the “HTR (per min)” value was less than 1 per min; the “elicitation of HTR (in words)” value is “did not elicit a HTR; also recorded: did not elicit the 5-HT2A-dependent HTR”; the qualitative behavioral changes result is “reduced locomotion and “hiccup” responses; also recorded: “hiccup” like responses and caused hypolocomotion”. For the same compound, the concentration at 10 min in “in vivo” (setting [6]) fell in the range of 200 to 1300 nM. For the same compound, the concentration at 0.5 h in the series “in vivo” (setting [7]) was in the range of 120 to 420 nM. The concentration at 2 h in the series “in vivo” (setting [8]) fell in the range of 3 to 20 nM. In addition, in the series “in vivo” (setting [9]), the concentration at 10 min fell in the range of 170 to 620 nM. Further, in the series “in vivo” (setting [10]), the concentration at 0.5 h was in the range of 72 to 180 nM. In “in vivo” (setting [11]), the concentration at 2 h was in the range of 2 to 16 nM.

With `CN(CCc1c[nH]c2cccc(O)c12)CC(F)F` [III-12, 3-(2-((2,2-difluoroethyl)(methyl)amino)ethyl)-1H-indol-4-ol], at 5-HT2A receptor [2], the activation at 0.5 µM was 17.8% and the activation at 50 µM was greater than 50%.
